This experiment relates to wild type HCT116 cells. Nature of the experiment: Clonogenic cell survival assay, OLFM4 added to the medium with genotoxic treatment. Format: cell-based, human. Conditions: 10 days. How it is done:
The influence of OLFM4 following genotoxic treatments in HCT116 OLFM4 inducible cells was evaluated by clonogenic assay. Cells were incubated with 50 ng/ml of doxycyclin, and then 24 hr later treated with oxaliplatin or sn38 at the indicated concentration for 10 days. The colonies were stained with crystal violet and counted by QuantityOne software (Biorad). B. OLFM4 overexpressed in COS7 cells, was added at approximately 3 ng/ml to oxaliplatin and sn38 treatment in the wild type HCT116 cells for 10 days. The colonies were stained and count as above. The histograms shown are representative of three individual experiments.
The human colon adenocarcinoma cell line HCT116 (American Type Culture Collection, ATCC) were maintained in antibiotic-free RPMI 1640 medium (Lonza). Cultures were supplemented with 10% fetal bovine serum. […]
HCT116 stable OLFM4 cells were seeded at 300 cells into 6 well cell culture plates with RPMI 1640 medium supplement with 3% fetal bovine serum and incubated at 37° C. in a 5% CO2 atmosphere. […] The number of colonies exceeding 50 cells was visualized with a Bio-Rad Chemi Doc XRS Imaging device and counted using Quantity One imaging software (Bio-Rad). The survival fraction was determined as the ratio of the number of colonies observed without doxycycline to the number of cells with doxycycline, adjusted to the plating efficiency.

“OLFM4: Secreted N-glycosylated protein of 510 residues, overexpressed in COS7 cells and added to culture medium”: where the note is “OLFM4 overexpressed in COS7 cells added at approximately 3 ng/ml to oxaliplatin treatment”, the “resistance to oxaliplatin (colony survival, clonogenic assay)” value is reported as “promotes resistance”. Further, the “resistance to sn38 (colony survival, clonogenic assay)” value (OLFM4 overexpressed in COS7 cells added at approximately 3 ng/ml to sn38 treatment) is listed as “promotes resistance”.
